Patent US20080031982A1 (Metaproteomics, LLC, priority 2006, published 2008)

Tests used:
MSSK1 = MSSK1 (Homo sapiens, UniProt Q9UPE1); assay: KinaseProfiler Assay
3T3-L1 adipocytes = assay: Lipogenesis in 3T3-L1 adipocytes (Oil Red O / BODIPY); format: cell-based, murine; settings: relative to solvent and positive controls
Protocol: Prior to experiments, cells were cultured in DMEM containing 10% FBS-HI added 50 units penicillin/ml and 50 μg streptomycin/ml, and maintained in log phase prior to experimental setup. Cells were grown in a 5% CO2 humidified incubator at 37° C. Components of the pre-confluent medium included (1) 10% FBS/DMEM containing 4.5 g glucose/L; (2) 50 U/ml penicillin; and (3) 50 μg/ml streptomycin. Growth medium was made by adding 50 ml of heat inactivated FBS and 5 ml of penicillin/streptomycin to 500 ml DMEM. This medium was stored at 4° C. Before use, the medium was warmed to 37° C. in a water bath.
3T3-T1 cells were seeded at an initial density of 6×10^4 cells/cm^2 in 24-well plates. For two days, the cells were allowed grow to reach confluence. Following confluence, the cells were forced to differentiate into adipocytes by the addition of differentiation medium; this medium consisted of (1) 10% FBS/DMEM (high glucose); (2) 0.5 mM methylisobutylxanthine; (3) 0.5 μM dexamethasone and (4) 10 μg/ml insulin (MDI medium). After three days, the medium was changed to post-differentiation medium consisting of 10 μg/ml insulin in 10% FBS/DMEM.
Whenever fresh media were added, fresh test material was also added.
Oil Red 0 Staining—Triglyceride content of D6/D7-differentiated 3T3-L1 cells was estimated with Oil Red 0 according to the method of Kasturi and Joshi [Kasturi, R. and Joshi, V. C. […] Monolayer cells were washed with PBS (phosphate buffered saline, Mediatech) and fixed with 10% formaldehyde for ten minutes. Fixed cells were stained with an Oil Red 0 working solution of three parts 0.6% Oil Red O/isopropanol stock solution and two parts water for one hour and the excess stain was washed once with water. The resulting stained oil droplets were extracted from the cells with isopropanol and quantified by spectrophotometric analysis at 540 nm (MEL312e BIO-KINETICS READER, Bio-Tek Instruments, Winooski, Vt.).
Briefly, media were removed and cells were washed once with non-sterile PBS. A stock 1000× BODIPY/DMSO solution was made by dissolving 1 mg BODIPY in 1 ml DMSO (1,000 μg BODIPY/ml). […] One-hundred μl of this working solution (1 μg BODIPY) was added to each well of a 96-well microtiter plate. After 15 min on an orbital shaker (DS-500, VWR Scientific Products, South Plainfield, N.J.) at ambient temperature, the cells were washed with 100 μl PBS followed by the addition of 100 μl PBS for reading for spectrofluorometric determination of BODIPY incorporation into the cells.
Nonpolar lipid incorporation was represented relative to the nonpolar lipid accumulation of fully differentiated cells in the solvent controls.

CK1(y) = assay: KinaseProfiler Assay
GSK3β = GSK3β (Homo sapiens, UniProt P49841); assay: KinaseProfiler Assay
IRAK1 = IRAK1 (Homo sapiens, UniProt P51617); assay: KinaseProfiler Assay
IKKβ = molecular target: T1, IKKβ (Homo sapiens, UniProt O14920); assay: KinaseProfiler Assay
T1 sequence (O14920 1-756): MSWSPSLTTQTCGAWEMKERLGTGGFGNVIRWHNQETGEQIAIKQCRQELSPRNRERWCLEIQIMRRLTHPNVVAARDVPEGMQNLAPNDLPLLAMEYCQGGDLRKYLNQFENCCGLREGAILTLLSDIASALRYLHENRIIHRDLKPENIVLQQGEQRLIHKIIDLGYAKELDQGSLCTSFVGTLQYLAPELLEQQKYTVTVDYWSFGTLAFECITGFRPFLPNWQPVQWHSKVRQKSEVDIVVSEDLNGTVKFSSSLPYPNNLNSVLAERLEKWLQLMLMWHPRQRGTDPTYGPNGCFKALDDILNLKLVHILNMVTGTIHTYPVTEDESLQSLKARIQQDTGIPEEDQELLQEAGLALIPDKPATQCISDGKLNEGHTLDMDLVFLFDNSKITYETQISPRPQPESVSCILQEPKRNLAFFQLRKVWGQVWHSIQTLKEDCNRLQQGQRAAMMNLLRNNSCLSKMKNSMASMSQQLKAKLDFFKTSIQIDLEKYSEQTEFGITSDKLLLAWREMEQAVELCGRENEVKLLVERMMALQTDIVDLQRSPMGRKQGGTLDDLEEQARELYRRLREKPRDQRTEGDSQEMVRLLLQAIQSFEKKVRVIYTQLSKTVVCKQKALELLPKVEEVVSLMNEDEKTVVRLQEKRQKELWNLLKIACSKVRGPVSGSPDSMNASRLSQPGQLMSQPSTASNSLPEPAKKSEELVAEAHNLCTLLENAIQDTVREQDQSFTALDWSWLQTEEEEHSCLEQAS

CHK1 = molecular target: T2, CHK1 (Homo sapiens, UniProt O14757); assay: KinaseProfiler Assay
T2 sequence (O14757 1-476): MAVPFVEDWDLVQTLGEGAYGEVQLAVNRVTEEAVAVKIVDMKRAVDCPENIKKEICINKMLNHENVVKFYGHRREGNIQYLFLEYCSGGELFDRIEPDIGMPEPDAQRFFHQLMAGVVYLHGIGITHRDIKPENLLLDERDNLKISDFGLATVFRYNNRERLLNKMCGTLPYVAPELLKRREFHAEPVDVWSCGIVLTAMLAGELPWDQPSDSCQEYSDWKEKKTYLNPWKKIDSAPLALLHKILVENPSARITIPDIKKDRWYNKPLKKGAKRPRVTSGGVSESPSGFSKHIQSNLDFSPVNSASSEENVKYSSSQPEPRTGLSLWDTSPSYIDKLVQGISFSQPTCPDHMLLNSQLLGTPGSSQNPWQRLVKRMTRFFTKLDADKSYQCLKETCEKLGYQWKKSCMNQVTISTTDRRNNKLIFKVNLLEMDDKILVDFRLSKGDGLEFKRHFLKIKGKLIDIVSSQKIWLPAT

EphA2 = EphA2 (Homo sapiens, UniProt P29317); assay: KinaseProfiler Assay
Pim-2 = Pim-2 (Homo sapiens, UniProt Q9P1W9); assay: KinaseProfiler Assay
CK1γ2 = CK1γ2 (Homo sapiens, UniProt P78368); assay: KinaseProfiler Assay
TBK1 = molecular target: T3, TBK1 (Homo sapiens, UniProt Q9UHD2); assay: KinaseProfiler Assay
T3 sequence (Q9UHD2 1-729): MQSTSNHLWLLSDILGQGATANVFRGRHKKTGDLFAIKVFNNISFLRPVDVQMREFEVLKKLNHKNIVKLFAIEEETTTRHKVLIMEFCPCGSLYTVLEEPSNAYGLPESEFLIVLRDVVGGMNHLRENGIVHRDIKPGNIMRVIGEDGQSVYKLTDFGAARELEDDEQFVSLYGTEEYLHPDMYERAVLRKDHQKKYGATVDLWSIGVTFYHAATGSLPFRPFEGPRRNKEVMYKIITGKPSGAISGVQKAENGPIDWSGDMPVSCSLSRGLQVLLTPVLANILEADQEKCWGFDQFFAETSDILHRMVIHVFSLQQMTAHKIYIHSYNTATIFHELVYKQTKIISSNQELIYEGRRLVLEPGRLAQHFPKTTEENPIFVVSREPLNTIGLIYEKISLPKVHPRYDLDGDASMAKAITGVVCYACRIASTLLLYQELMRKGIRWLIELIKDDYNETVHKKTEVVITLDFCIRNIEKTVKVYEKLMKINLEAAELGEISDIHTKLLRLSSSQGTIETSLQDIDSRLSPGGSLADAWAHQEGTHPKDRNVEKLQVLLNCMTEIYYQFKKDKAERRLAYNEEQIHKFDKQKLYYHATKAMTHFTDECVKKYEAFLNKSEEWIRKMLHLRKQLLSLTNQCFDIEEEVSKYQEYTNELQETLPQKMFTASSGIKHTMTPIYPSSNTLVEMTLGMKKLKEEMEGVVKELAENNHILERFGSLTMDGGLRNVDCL

Pim-2, sequence (Q9P1W9 whole entry): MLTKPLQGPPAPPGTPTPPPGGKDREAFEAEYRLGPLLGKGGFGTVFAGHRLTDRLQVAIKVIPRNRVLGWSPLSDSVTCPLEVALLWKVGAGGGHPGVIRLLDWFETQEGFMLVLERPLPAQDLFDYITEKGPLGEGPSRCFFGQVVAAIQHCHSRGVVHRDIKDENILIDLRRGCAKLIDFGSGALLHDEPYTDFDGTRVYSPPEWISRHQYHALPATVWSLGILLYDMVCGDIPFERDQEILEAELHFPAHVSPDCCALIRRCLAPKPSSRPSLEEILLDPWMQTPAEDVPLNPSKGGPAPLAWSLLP
CK1γ2, sequence (P78368 whole entry): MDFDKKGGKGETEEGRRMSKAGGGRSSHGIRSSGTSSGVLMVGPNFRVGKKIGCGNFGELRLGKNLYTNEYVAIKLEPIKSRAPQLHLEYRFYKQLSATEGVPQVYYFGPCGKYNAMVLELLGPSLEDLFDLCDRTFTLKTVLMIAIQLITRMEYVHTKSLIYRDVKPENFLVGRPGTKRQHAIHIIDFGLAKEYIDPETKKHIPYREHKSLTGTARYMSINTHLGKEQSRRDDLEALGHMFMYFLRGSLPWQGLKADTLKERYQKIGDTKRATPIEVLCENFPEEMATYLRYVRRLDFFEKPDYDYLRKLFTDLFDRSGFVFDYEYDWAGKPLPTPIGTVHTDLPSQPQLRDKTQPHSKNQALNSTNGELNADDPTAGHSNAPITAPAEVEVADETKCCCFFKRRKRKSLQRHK
EphA2, sequence (P29317 24-976): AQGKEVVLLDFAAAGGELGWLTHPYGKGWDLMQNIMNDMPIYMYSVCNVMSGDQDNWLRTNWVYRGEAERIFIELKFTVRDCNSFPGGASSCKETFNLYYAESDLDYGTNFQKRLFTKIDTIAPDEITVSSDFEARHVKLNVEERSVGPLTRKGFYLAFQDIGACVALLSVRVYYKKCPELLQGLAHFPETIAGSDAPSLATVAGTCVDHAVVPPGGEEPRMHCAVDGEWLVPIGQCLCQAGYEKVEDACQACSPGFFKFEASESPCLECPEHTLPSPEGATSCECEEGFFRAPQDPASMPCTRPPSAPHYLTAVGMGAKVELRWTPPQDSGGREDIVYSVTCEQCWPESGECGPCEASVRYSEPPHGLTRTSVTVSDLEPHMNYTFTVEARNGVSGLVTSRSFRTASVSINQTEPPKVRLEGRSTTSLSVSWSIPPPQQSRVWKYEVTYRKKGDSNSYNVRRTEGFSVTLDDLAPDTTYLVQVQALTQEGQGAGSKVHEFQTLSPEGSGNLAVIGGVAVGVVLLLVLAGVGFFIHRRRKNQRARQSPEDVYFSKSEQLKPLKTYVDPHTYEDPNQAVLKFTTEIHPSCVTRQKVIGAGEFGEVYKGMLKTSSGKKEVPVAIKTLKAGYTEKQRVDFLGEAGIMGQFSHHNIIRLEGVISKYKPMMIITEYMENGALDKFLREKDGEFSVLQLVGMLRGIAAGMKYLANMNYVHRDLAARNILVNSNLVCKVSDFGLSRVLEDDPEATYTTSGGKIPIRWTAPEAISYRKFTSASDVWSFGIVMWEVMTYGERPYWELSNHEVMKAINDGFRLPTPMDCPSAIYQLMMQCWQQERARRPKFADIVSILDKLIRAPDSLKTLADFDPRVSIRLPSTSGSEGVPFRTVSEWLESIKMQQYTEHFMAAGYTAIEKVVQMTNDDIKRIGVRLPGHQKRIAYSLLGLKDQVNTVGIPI
IRAK1, sequence (P51617 whole entry): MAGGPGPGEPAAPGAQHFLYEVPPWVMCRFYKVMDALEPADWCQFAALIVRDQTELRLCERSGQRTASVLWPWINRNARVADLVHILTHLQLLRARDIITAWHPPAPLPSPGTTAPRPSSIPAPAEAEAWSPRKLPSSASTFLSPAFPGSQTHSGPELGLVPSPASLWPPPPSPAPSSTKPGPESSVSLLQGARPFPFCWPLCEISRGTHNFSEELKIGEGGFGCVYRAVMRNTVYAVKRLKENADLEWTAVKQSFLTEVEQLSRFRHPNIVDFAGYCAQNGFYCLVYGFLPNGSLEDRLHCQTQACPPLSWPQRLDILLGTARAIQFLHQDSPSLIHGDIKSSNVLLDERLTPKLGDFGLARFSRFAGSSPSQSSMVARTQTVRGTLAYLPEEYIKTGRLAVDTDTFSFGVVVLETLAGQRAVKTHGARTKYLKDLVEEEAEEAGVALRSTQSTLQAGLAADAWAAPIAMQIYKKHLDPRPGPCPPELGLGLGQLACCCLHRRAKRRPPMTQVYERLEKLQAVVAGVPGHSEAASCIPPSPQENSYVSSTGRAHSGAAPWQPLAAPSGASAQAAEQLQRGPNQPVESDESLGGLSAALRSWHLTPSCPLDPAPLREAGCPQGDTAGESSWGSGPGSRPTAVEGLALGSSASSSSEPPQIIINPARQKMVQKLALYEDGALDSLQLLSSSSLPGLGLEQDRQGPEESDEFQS
GSK3β, sequence (P49841 whole entry): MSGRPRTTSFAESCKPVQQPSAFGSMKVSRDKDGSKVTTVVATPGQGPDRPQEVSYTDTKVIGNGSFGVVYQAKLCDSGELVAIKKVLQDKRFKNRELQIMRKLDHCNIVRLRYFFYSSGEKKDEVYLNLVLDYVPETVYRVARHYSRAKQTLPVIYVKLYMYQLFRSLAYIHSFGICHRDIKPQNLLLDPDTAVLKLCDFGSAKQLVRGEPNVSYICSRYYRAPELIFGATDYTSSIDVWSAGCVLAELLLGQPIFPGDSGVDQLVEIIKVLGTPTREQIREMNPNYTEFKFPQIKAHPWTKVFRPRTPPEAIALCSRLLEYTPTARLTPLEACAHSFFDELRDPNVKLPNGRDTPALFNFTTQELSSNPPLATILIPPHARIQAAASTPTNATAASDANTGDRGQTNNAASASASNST
MSSK1, sequence (Q9UPE1 whole entry): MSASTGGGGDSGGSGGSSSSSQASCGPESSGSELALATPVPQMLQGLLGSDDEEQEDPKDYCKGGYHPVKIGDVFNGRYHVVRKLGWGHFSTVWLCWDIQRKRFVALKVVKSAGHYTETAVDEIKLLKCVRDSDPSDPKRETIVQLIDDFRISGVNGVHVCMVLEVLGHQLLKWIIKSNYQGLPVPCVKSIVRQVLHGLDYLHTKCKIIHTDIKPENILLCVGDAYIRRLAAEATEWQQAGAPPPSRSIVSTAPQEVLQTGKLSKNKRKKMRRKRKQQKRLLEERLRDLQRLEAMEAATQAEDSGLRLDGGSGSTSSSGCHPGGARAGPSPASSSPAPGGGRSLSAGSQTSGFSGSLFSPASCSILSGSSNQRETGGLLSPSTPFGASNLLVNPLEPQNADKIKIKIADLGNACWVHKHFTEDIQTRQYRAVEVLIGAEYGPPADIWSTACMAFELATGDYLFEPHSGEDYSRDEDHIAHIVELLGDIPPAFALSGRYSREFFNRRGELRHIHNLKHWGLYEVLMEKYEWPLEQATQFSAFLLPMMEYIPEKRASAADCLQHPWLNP

SMILES: COc1cc(O)c(CC=C(C)C)c(O)c1C(=O)/C=C/c1ccc(O)cc1 [Xanthohumol, xanthohumol]
- Kinase activity, % of Control (MSSK1; 1 ug/ml): 47 % of Control
- Kinase activity, % of Control (MSSK1; 5 ug/ml): 11 % of Control
- Kinase activity, % of Control (MSSK1; 25 ug/ml): 7 % of Control
- Kinase activity, % of Control (MSSK1; 50 ug/ml): 5 % of Control
- adipogenic / lipogenic response (3T3-L1 adipocytes): comparable to indomethacin and troglitazone
- Kinase activity, % of Control (CK1(y); 1 ug/ml): 91 % of Control
- Kinase activity, % of Control (CK1(y); 5 ug/ml): 63 % of Control
- Kinase activity, % of Control (CK1(y); 25 ug/ml): 37 % of Control
- Kinase activity, % of Control (CK1(y); 50 ug/ml): 9 % of Control
- Kinase activity, % of Control (GSK3β; 1 ug/ml): 120 % of Control
- Kinase activity, % of Control (GSK3β; 5 ug/ml): 99 % of Control
- Kinase activity, % of Control (GSK3β; 25 ug/ml): 25 % of Control
- Kinase activity, % of Control (GSK3β; 50 ug/ml): 3 % of Control
- Kinase activity, % of Control (IRAK1; 1 ug/ml): 129 % of Control
- Kinase activity, % of Control (IRAK1; 5 ug/ml): 104 % of Control
- Kinase activity, % of Control (IRAK1; 50 ug/ml): 36 % of Control
- Kinase activity, % of Control (IKKβ; 1 ug/ml): 145 % of Control
- Kinase activity, % of Control (IKKβ; 5 ug/ml): 118 % of Control
- Kinase activity, % of Control (IKKβ; 25 ug/ml): 61 % of Control
- Kinase activity, % of Control (IKKβ; 50 ug/ml): 44 % of Control
- Kinase activity, % of Control (CHK1; 1 ug/ml): 121 % of Control
- Kinase activity, % of Control (CHK1; 5 ug/ml): 126 % of Control
- Kinase activity, % of Control (CHK1; 25 ug/ml): 142 % of Control
- Kinase activity, % of Control (CHK1; 50 ug/ml): 149 % of Control
- Kinase activity, % of Control (EphA2; 1 ug/ml): 124 % of Control
- Kinase activity, % of Control (EphA2; 25 ug/ml): 121 % of Control
- Kinase activity, % of Control (EphA2; 50 ug/ml): 52 % of Control
- Kinase activity, % of Control (Pim-2; 1 ug/ml): 104 % of Control
- Kinase activity, % of Control (Pim-2; 5 ug/ml): 48 % of Control
- Kinase activity, % of Control (Pim-2; 25 ug/ml): 14 % of Control
- Kinase activity, % of Control (Pim-2; 50 ug/ml): 6 % of Control
- Kinase activity, % of Control (CK1γ2; 1 ug/ml): 92 % of Control
- Kinase activity, % of Control (CK1γ2; 5 ug/ml): 48 % of Control
- Kinase activity, % of Control (CK1γ2; 25 ug/ml): 30 % of Control
- Kinase activity, % of Control (CK1γ2; 50 ug/ml): 12 % of Control
- Kinase activity, % of Control (TBK1; 1 ug/ml): 104 % of Control
- Kinase activity, % of Control (TBK1; 5 ug/ml): 71 % of Control
- Kinase activity, % of Control (TBK1; 25 ug/ml): 45 % of Control
- Kinase activity, % of Control (TBK1; 50 ug/ml): 42 % of Control
